Laboratory results: patent US8283353B2, “Fused ring compound and use thereof” (Takeda Pharmaceutical Company Limited, priority 2009, dated 2012)
Counter-ions that a name gives are not always drawn.

Test system: Male SHRs
Test: Antihypertensive effect: mean blood pressure in male SHRs after oral administration
Format: in vivo, rat
Conditions: male SHR, dose 3 mg/kg, MBP measured during 24 hours
Description: Male SHRs (28-40 weeks old, Japan SLC, Inc., Japan) were anesthetized with sodium pentobarbital (50 mg/kg, i.p.). The left femoral artery was cannulated with a polyethylene catheter filled with saline comprising heparin (200 U/mL). The catheter was exteriorized at the back of the neck and each SHR was individually housed in a cage and left two or four days to recover. The mean blood pressure (MBP) was obtained from the systemic blood pressure which was monitored from the femoral artery using a pressure transducer connected to a polygraph system (Nihon Kohden Corporation). The heart rate was measured from the blood pressure pulse intervals. The rats which had MBP over 150 mmHg were used for the experiment. When the blood pressure had stabilized, vehicle (0.5 w/v % methylcellulose) or compounds were orally administered. All compounds were suspended in 0.5 w/v % methylcellulose and orally administered at a volume of 2 mL/kg. The MBP was measured during 24 hours after the administration.

CCCc1c(Cc2ccc(-c3ccccc3-c3noc(=O)[nH]3)cc2)c(=O)n([C@H]2CC[C@H](OCC(C)(C)O)CC2)c2ccnn12 [Example 415, 4-[trans-4-(2-hydroxy-2-methylpropoxy)cyclohexyl]-6-{[2′-(5-oxo-4,5-dihydro-1,2,4-oxadiazol-3-yl)biphenyl-4-yl]methyl}-7-propylpyrazolo[1,5-a]pyrimidin-5(4H)-one potassium salt]
Maximum MBP reduction (mmHg): 63 mmHg

(−)-6-{[3-fluoro-2′-(5-oxo-4,5-dihydro-1,2,4-oxadiazol-3-yl)biphenyl-4-yl]methyl}-4-[trans-4-(2-hydroxy-1,2-dimethylpropoxy)cyclohexyl]-7-propyl[1,2,4]triazolo[1,5-a]pyrimidin-5(4H)-one potassium salt (retention time: long) [Example 459]
Maximum MBP reduction (mmHg): 64 mmHg
